Read-outs that look alike come from different tables or passages of the source. Blank lines part the entries; values can stand above or below the molecule they belong to.
Key:
[1] = molecular target: T1, COX-2 (Homo sapiens, UniProt P35354); assay: In-vitro test for COX-2 inhibition: PGE2 ELISA in LPS-stimulated human monocytes; format: cell-based; conditions: for IC50: Table 18, LPS-stimulated human monocytes, PGE2; for inhibition of COX-2 (in words): comparison of both isoenzymes
T1 construct: endogenous in cells; host or cells: LPS-stimulated human monocytes (Ficoll extraction)
T1 sequence (P35354 18-604): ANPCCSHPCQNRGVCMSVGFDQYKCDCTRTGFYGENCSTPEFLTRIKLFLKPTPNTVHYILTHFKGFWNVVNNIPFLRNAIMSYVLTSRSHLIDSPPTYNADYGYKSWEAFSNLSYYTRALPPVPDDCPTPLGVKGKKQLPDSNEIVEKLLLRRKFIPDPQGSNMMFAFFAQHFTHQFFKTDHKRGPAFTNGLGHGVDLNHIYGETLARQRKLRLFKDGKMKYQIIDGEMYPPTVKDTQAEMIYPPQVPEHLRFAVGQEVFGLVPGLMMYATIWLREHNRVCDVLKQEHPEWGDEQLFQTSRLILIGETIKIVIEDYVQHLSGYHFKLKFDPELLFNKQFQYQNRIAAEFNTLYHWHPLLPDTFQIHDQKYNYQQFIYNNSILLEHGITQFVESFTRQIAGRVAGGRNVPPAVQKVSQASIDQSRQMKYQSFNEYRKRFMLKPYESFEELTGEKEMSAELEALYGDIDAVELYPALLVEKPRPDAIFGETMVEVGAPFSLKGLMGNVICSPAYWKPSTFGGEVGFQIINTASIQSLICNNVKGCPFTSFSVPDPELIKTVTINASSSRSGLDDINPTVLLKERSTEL
Description: In-vitro Test Procedure for the Determination of COX-2 Inhibition
The procedure is carried out on LPS-stimulated human monocytes which have been obtained by Ficoll extraction. The measurement variable used is the PGE2 formed, which is determined by means of ELISA.

[2] = molecular target: T2, COX-1 (Sus scrofa, UniProt A0A287ANF9); assay: In-vitro test for COX-1 inhibition: fluorimetric quantification of malonaldehyde (MDA) in A23187-activated pig platelet suspension; format: cell-based; conditions: for inhibition of COX-1 (in words): comparison of both isoenzymes
T2 construct: A platelet suspension obtained from pig's blood is preincubated with the test substance; endogenous in cells; host or cells: platelets from pig's blood
T2 sequence (A0A287ANF9 25-600): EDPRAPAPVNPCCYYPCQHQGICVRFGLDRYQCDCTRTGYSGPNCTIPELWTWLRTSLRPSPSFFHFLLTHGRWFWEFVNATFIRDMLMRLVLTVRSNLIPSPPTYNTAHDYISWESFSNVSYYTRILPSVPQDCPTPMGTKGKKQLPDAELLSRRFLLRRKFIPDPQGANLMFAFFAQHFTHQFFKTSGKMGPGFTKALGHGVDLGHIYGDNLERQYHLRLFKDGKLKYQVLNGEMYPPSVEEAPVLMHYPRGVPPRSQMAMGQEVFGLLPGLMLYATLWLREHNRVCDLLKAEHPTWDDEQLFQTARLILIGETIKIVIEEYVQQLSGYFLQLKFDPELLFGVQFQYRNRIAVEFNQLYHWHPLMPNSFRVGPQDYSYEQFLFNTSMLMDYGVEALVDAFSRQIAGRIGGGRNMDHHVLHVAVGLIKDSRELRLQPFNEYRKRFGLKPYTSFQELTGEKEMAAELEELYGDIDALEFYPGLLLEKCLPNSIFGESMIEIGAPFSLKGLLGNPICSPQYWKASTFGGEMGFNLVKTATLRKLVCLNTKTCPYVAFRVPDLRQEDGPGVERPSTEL
Description: In-vitro Test Procedure for the Determination of COX-1 Inhibition
The inhibition of the cyclooxygenase pathway is carried out by fluorimetric quantification of malonaldehyde (MA). This condenses in the acidic medium with twice the molar amount of thiobarbituric acid to give a red pigment dye, which has a fluorescence at λExcitation: 533 nm, λEmission: 550 nm.
A platelet suspension obtained from pig's blood is preincubated with the test substance for 10 min at 37° C. The concentration of the suspension should be 8×10^8 cells/ml. The arachidonic acid cascade is then activated by addition of the antibiotic calcium ionophore A23187 ([…]). After a further 10 min at 37° C., the reaction is stopped using a trichloroacetic acid solution. The samples are centrifuged and the supernatant is incubated with thiobarbituric acid for 30 min at 70° C. After cooling (30 min at room temperature), the samples are measured fluorimetrically at 533/550 nm and the IC50 values of the test compounds are determined therefrom by means of a calibration curve.

[3] = read-out: COX-2 inhibition pIC50 (converted)
[4] = Table 8, arylsulfonamides, pig platelets, read-out: MDA pIC50 (converted)
[5] = read-out: COX-2 inhibition IC50
[6] = Table 2, sulfanylacetamides, pig platelets, read-out: MDA pIC50 (converted)
[7] = Table 17, methyl derivatives, pig platelets, read-out: MDA pIC50 (converted)
[8] = tables 1 to 17, read-out: IC50 values (inhibition of cyclooxygenase-1)
[9] = Table 1, carbamic acid thioesters, pig platelets, read-out: MDA pIC50 (converted)
[10] = Table 7, arylamides, pig platelets, read-out: MDA IC50
[11] = Table 7, arylamides, pig platelets, read-out: MDA pIC50 (converted)

Structure (SMILES): COc1ccc(-c2c(-c3ccc(Cl)cc3)nc(SCc3ccccn3)n2CC(=O)O)cc1 [Compound T109, 2-[4-(4-Chlorophenyl)-5-(4-methoxyphenyl)-2-(2-pyridylmethylsulfanyl) -1H-imidazol-1-yl]acetic acid]
IC50 [1, 3]: 1000 nM
inhibition of COX-2 (in words) [1]: medium-strong inhibition
IC50 ([2]; Table 6, N1-acetic acid derivatives, pig platelets, read-out: MDA IC50): 490 nM
inhibition of COX-1 (in words) [2]: medium-strong inhibition

Structure (SMILES): COc1ccc(-c2nc(SCCNS(=O)(=O)c3cc(C(F)(F)F)cc(C(F)(F)F)c3)[nH]c2-c2ccc(OC)cc2)cc1 [Compound T22, N^1-{2-[4,5-Bis(4-methoxyphenyl)-1H-imidazol-2-ylsufanyl]ethyl}-3,5-bis-(trifluoromethyl)benzenesulfonamide]
IC50 [1, 3]: 1510 nM
IC50 [2, 4]: 407 nM

Structure (SMILES): CC(=O)NCCSc1nc(-c2ccc(Cl)cc2)c(-c2ccc(Cl)cc2)[nH]1 [Compound T84, N^1-{2-[4,5-Bis(4-chlorophenyl)-1H-imidazol-2-ylsufanyl]ethyl}acetamide]
IC50 [1, 3]: 2690 nM
IC50 ([2]; Table 9, alkylamides, pig platelets, read-out: MDA pIC50 (converted)): 1100 nM

Structure (SMILES): COc1ccc(-c2nc(SCc3ccccn3)[nH]c2-c2ccc(OC)cc2)cc1 [Compound T69, 2-[4,5-Bis(4-methoxyphenyl)-1H-imidazol-2-ylsulfanylmethyl]pyridine]
IC50 [1, 3]: 240 nM
IC50 ([2]; Table 5, heteroarylmethyl sulfides, pig platelets, read-out: MDA pIC50 (converted)): 100 nM
IC50 ([2]; Table 14, sulfones and their sulfide analogs, pig platelets, read-out: MDA pIC50 (converted)): 100 nM

Structure (SMILES): COc1ccc(-c2nc(SCC(=O)N(C)C)[nH]c2-c2ccc(OC)cc2)cc1 [Compound T6, N^1N^1-Dimethyl-2-[4,5-bis(4-methoxyphenyl)-1H-imidazol-2-ylsulfanyl]-acetamide]
IC50 [1, 3]: 2290 nM
IC50 [2, 6]: 10 nM
IC50 ([2]; Table 15, N,N-acetamides, pig platelets, read-out: MDA pIC50 (converted)): 10 nM

Structure (SMILES): COc1ccc(-c2nc(SCCN(C)C(=O)c3ccccc3)[nH]c2-c2ccc(OC)cc2)cc1 [Compound T29, N^1-{2-[4,5-Bis(4-methoxyphenyl)-1H-imidazol-2ylsulfanyl]ethyl}-N^1-1-methylbenzamide]
IC50 [1, 3]: 10 nM
inhibition of COX-2 (in words) [1]: approximately equally high potency
IC50 [2, 7]: 20.9 nM
inhibition of COX-1 (in words) [2]: approximately equally high potency

Structure (SMILES): COc1ccc(-c2nc(SCC(=O)c3ccccc3)[nH]c2-c2ccc(OC)cc2)cc1 [Compound T11, 2-[4,5-Bis(4-methoxyphenyl)-1H-imidazol-2-ylsulfanyl]-1-phenylethan-1-one]
IC50 [1, 3]: 257 nM
IC50 ([2]; Table 4, aryl ketones, pig platelets, read-out: MDA IC50): 9.5 nM
IC50 [2, 8]: ~1 nM

Structure (SMILES): COc1ccc(-c2nc(SC(C(C)=O)C(=O)N(C)C)[nH]c2-c2ccc(OC)cc2)cc1 (stereo not shown) [Compound T7, N^1,N^1-Dimethyl-2-[4,5-bis(4-methoxyphenyl)-1H-imidazol-2-ylsufanyl]-3-oxobutanamide]
IC50 [1, 5]: 500 nM
IC50 [2, 6]: 33.1 nM

Structure (SMILES): CCN(CC)C(=O)Sc1nc(-c2ccc(Cl)cc2)c(-c2ccc(OC)cc2)[nH]1 [Compound T108, [4-(4-Chlorophenyl)-5-(4-methoxyphenyl)-1H-imidazol-2-yl]-N N-diethyl-carbamic acid thioester]
IC50 [1, 3]: 1000 nM
IC50 [2, 9]: 158 nM

Structure (SMILES): COc1ccc(-c2nc(SCCNC(=O)N(C)C)[nH]c2-c2ccc(OC)cc2)cc1 [Compound T57, N^1-{2-[4,5-Bis(4-methoxyphenyl)-1H-imidazol-2-ylsulfanyl]ethyl}-N′,N′-dimethylurea]
IC50 [1, 3]: 209 nM
IC50 ([2]; Table 13, urea derivatives, pig platelets, read-out: MDA IC50): 78 nM

Structure (SMILES): COc1ccc(-c2nc(SCCNC(=O)c3ccco3)[nH]c2-c2ccc(OC)cc2)cc1 [Compound T53, N^1-{2-[4,5-Bis(4-methoxyphenyl)-1H-imidazol-2-ylsulfanyl]ethyl}furan-2-carboxamide]
IC50 ([2]; Table 11, heteroaryl- and naphthylamides, pig platelets, read-out: MDA pIC50 (converted)): 347 nM

Structure (SMILES): CCN(CC)C(=O)Sc1nc(-c2ccc(Cl)cc2)c(-c2ccccc2)[nH]1 [Compound T104, [4-(4-Chlorophenyl)-5-phenyl-1H-imidazol-2-yl]-N,N-diethylcarbamic acid thioester]
IC50 [2, 9]: 4170 nM

Structure (SMILES): O=C(NCCSc1nc(-c2ccc(Cl)cc2)c(-c2ccc(Cl)cc2)[nH]1)c1ccccc1 [Compound T85, N^1-{2-[4,5-Bis(4-chlorophenyl)-1H-imidazol-2-ylsufanyl]ethyl}benzamide]
IC50 [2, 10]: 450 nM

Structure (SMILES): CCN(CC)C(=O)Sc1nc(-c2ccc(OC)cc2)c(-c2ccc(OC)cc2)[nH]1 [Compound T2, [4,5-Bis(4-methoxyphenyl)-1H-imidazol-2-yl]-N,N-diethylcarbamic acid thioester]
IC50 [1, 3]: 2400 nM
IC50 ([2]; Table 1, carbamic acid thioesters, pig platelets, read-out: MDA IC50): 4.8 nM
IC50 [2, 8]: ~1 nM

Structure (SMILES): COc1ccc(-c2nc(SCCNC(=O)c3cc(C(F)(F)F)cc(C(F)(F)F)c3)[nH]c2-c2ccc(OC)cc2)cc1 [Compound T44, N^1-{2-[4,5-Bis(4-methoxyphenyl)-1H-imidazol-2-ylsufanyl]ethyl}-3,5-bis-(trifluoromethyl)benzamide]
IC50 [2, 10]: 520 nM

Structure (SMILES): COc1ccc(-c2nc(SCCNS(=O)(=O)c3cccc4ccccc34)[nH]c2-c2ccc(OC)cc2)cc1 [Compound T67, N^1-{2-[4,5-Bis(4-methoxyphenyl)-1H-imidazol-2-ylsulfanyl]ethyl}-naphthalene-1-sulfonamide]
IC50 ([2]; Table 12, naphthylsulfonamides, pig platelets, read-out: MDA pIC50 (converted)): 380 nM

Structure (SMILES): COc1ccc(-c2nc(SCCNC(=O)c3cccc(C(F)(F)F)c3)[nH]c2-c2ccc(OC)cc2)cc1 [Compound T43, N^1-{2-[4,5-Bis(4-methoxyphenyl)-1H-imidazol-2-ylsufanyl]ethyl}-3-(tri-fluoromethyl)benzamide]
IC50 [2, 11]: 100 nM

Further lines, results first:

IC50 [1, 3]: 1200 nM
IC50 [2, 4]: 18.2 nM
Structure (SMILES): COc1ccc(-c2nc(SCCNS(=O)(=O)c3ccc(NC(C)=O)cc3)[nH]c2-c2ccc(OC)cc2)cc1 [Compound T27, N^1-(4-{2-[4,5-Bis(4-methoxyphenyl)-1H-imidazol-2-ylsufanyl]ethyl-sulfamoyl}phenyl)acetamide]

IC50 [1, 5]: 800 nM
IC50 [2, 4]: 129 nM
Structure (SMILES): COc1ccc(-c2[nH]c(SCCNS(=O)(=O)c3ccc(Cl)cc3)nc2-c2ccc(Cl)cc2)cc1 [Compound T111, N^1-{2-[4-(4-Chlorophenyl)-5-(4-methoxyphenv)-1H-imidazol-2-yl-sufanyl]ethyl}-4-chlorobenzenesulfonamide]

IC50 [1, 3]: 3020 nM
IC50 [2, 4]: 282 nM
Structure (SMILES): COc1ccc(-c2nc(SCCNS(=O)(=O)c3ccc(Cl)cc3)[nH]c2-c2ccc(OC)cc2)cc1 [Compound T18, N-hu 1-{2-[4,5-Bis(4-methoxyphenyl)-1H-imidazol-2-ylsufanyl]ethyl}-4-chlorobenzenesulfonamide]

IC50 [2, 11]: 251 nM
Structure (SMILES): COc1ccc(-c2nc(SCCNC(=O)c3ccc(Cl)cc3)[nH]c2-c2ccc(OC)cc2)cc1 [Compound T32, N^1-{2-[4,5-Bis(4-methoxyphenyl)-1H-imidazol-2-ylsufanyl]ethyl}-4-chlorobenzamide]

IC50 ([2]; Table 16, dimethyl compounds, pig platelets, read-out: MDA pIC50 (converted)): 69.2 nM
Structure (SMILES): COc1ccc(-c2nc(SCCN(C)S(=O)(=O)c3ccc(Cl)cc3)n(C)c2-c2ccc(OC)cc2)cc1 [Compound T19, N^1-{2-[4,5-Bis(4-methoxyphenyl)-1-methyl-1H-imidazol-2-ylsufanyl]-ethyl}-N-1-methyl-4-chlorobenzenesulfonamide]

IC50 [2, 7]: 41.7 nM
Structure (SMILES): COc1ccc(-c2nc(SCCNC(=O)c3ccccc3)n(C)c2-c2ccc(OC)cc2)cc1 [Compound T30, N^1-{2-[4,5-Bis(4-methoxyphenyl)-1-methyl-1H-imidazol-2-ylsufanyl]-ethyl}benzamide]

IC50 ([2]; Table 8, arylsulfonamides, pig platelets, read-out: MDA IC50): 60 nM
Structure (SMILES): COc1ccc(-c2nc(SCCNS(=O)(=O)c3ccc(F)cc3)[nH]c2-c2ccc(OC)cc2)cc1 [Compound T20, N^1-{2-[4,5-Bis(4-methoxyphenyl)-1H-imidazol-2-ylsufanyl]ethyl}-4-fluorobenzenesulfonamide]

Reference: patent publication US7223781B2 (Beiersdorf AG, priority 2001, dated 2007)
